Patent US20070099851A1, “Stable analogues of ribose-1-phosphate and methods for treating diabetes and other metabolic disorders” (priority 2004, published 2007)
Like-named read-outs stand apart in the source and are kept apart here. Marks after values point to notes of the source that are not given here. Blank lines part the entries; values can stand above or below the compound they belong to.

What was measured:
[1] = biological target: T1, human purine nucleoside phosphorylase (Homo sapiens, UniProt P00491); details: background statement; cited from earlier work
T1 sequence (P00491 1-289): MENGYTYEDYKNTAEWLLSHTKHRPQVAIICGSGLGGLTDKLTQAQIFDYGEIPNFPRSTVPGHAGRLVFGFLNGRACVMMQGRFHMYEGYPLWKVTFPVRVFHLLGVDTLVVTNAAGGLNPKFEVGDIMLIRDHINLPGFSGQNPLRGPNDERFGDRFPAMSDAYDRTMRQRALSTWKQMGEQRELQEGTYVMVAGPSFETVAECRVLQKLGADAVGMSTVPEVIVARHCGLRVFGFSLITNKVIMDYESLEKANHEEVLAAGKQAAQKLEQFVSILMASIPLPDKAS

[2] = test system: Zucker (fa/fa) rats; assay: Glucose tolerance test in diabetic Zucker (fa/fa) rats; type: in vivo, rat; details: for Blood Glucose at 120 minutes: fasted Zucker (fa/fa) rats, IP glucose 1.5 g/kg
Method: Thirty-six 16 wk old male Zucker (fa/fa) rats were randomly assigned to one of the following groups: • 1. Vehicle (0.9% NaCl) • 2. Metformin—320 mg/kg • 3. Compound 1.1—10 mg/kg Acid • 4. Compound 1.1—100 mg/kg Acid • 5. Compound 3.1—10 mg/kg Ester • 6. Compound 3.1—100 mg/kg Ester
Animals were fasted for 16-18 hr and lightly anesthetized with a mixture of ketamine/xylazine at a dose of 0.5 ml/kg (45 mg/kg ketamine, 5 mg/kg xylazine). Animals received their respective treatments via IP injection (1.5 ml/kg) followed by an IP injection of glucose at 1.5 g/kg. Blood glucose was measured at 0, 30, 60, 90, and 120 minutes post-glucose.

[3] = test system: HL-60, Leukemia; assay: Anticancer activity, HL-60; type: cell-based
[4] = biological target: 6-phosphofructo-1-kinase; details: background statement; cited from earlier work
[5] = test system: 6-phosphofructo-1-kinase; assay: Activation of 6-phosphofructo-1-kinase; type: biochemical; details: for Ka: concentration giving half-maximal activation
Text: (§1) Studies of Compound 2 have shown that it activates 6-phosphofructo-1-kinase (6PF1K) and inhibits fructose-1,6-bisphosphatase (FBPase). […] It is well known that by increasing the rate of glycolysis, the rate of gluconeogenesis decreases (Hanson et al. (1984) J. Biol. Chem. 259, 218-223).
Ka is the concentration of substrate giving half-maximal activation.

[6] = test system: FAO hepatoma cells; assay: Inhibition of glucose production in FAO cells; type: cell-based; details: for Percent inhibition of glucose production: FAO cells
Text: as §1

[7] = biological target: T2, Fructose-1,6-bisphosphatase (Homo sapiens, UniProt P09467); details: background statement; cited from earlier work
T2 sequence (P09467 2-338 limits assumed): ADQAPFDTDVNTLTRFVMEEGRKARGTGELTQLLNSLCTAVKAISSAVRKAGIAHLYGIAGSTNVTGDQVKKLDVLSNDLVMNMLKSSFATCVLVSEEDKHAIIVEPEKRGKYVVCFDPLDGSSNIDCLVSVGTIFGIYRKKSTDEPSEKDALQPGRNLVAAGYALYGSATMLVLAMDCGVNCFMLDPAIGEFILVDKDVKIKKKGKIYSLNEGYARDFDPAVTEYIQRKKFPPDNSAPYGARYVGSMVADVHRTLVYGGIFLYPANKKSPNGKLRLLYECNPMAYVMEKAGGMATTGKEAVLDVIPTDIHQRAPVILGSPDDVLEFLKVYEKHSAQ

[8] = test system: FAO hepatoma cells; details: background statement; cited from earlier work
[9] = biological target: T2, Fructose-1,6-bisphosphatase; assay: Inhibition of fructose-1,6-bisphosphatase; type: biochemical
Text: as §1

[10] = test system: INS-1 clonal pancreatic B-cells; assay: Stimulation of insulin secretion in INS-1 cells; type: cell-based; details: for Insulin release greater compared to controls: 3 mM glucose, 500 μM compound, overnight; for Activating effect on insulin release, in words: 16 mM glucose
Method: INS-1 clonal pancreatic B-cells were grown in well plates or T-25 flasks incubated overnight with INS-1 cell media with 3 mM glucose and 500 μM of compound 3 or compound 4. Insulin samples were collected for 10 minutes at 18 second intervals. Insulin release was greater for both compound 3.1 and compound 4.1 compared to controls, by about 50 percent, under these conditions. At 16 mM glucose the activating effect disappeared.

[11] = test system: Rh1, Ewing Sarcoma; assay: Anticancer activity, Rh1; type: cell-based
[12] = test system: HTC hepatoma cells; assay: Inhibition of intracellular lipid synthesis in HTC hepatoma cells; type: cell-based; details: 500 μM; for Cholesterol: control 48; for Triglyceride: control 60
[13] = biological target: T3, calf spleen purine nucleoside phosphorylase (Bos taurus, UniProt P55859); assay: Inhibition of calf spleen purine nucleoside phosphorylase (cPNP); type: biochemical; details: for cPNP activity: 27 μM compound
T3 construct: from tissue; host or cells: calf spleen
T3 sequence (P55859 1-289): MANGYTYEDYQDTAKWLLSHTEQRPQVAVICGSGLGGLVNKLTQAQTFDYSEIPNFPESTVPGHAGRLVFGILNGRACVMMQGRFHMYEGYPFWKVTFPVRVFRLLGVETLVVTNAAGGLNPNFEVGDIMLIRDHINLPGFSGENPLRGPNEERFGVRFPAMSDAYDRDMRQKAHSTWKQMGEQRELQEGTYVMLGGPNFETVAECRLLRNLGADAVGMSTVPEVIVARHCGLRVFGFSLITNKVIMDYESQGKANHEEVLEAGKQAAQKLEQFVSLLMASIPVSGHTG
Method: Compound 4.1 (27 μM) was incubated with calf spleen purine nucleoside phosphorylase with increasing concentrations of inorganic phosphate.

SMILES: O=P(O)(O)OC1O[C@H](CI)[C@@H](O)[C@H]1O (stereo partly shown) [5-iodo-ribose-1-phosphate]
Effect on human purine nucleoside phosphorylase, in words [1]: inhibits

SMILES: O=P(O)(O)CC1OC(CO)C(O)C1O (stereo not shown) [Compound 1.1, ribose-1-methylenephosphonate]
Blood Glucose at 120 minutes ([2]; 10 mg/kg IP): 460 mg/dL | Blood Glucose at 120 minutes ([2]; 100 mg/kg IP): 400 mg/dL | Effect on blood glucose levels, in words ([2]; fasted diabetic Zucker (fa/fa), injected, glucose challenge): reduce blood glucose levels | IC50 [3]: 170 µM

Effect on 6-phosphofructo-1-kinase (6PF1K), in words [5]: activates | Ka [5]: 6.5 µM | Effect on fructose-1,6-bisphosphatase (FBPase), in words [9]: inhibits | Ki ([9]; At 5 μM Fru-1,6-bisphosphate): 87 µM | Maximum Decrease in Activity ([9]; At 5 μM Fru-1,6-bisphosphate): 50% | Ki ([9]; At 20 μM Fru-1,6-bisphosphate): 87 µM | Maximum Decrease in Activity ([9]; At 20 μM Fru-1,6-bisphosphate): 50%
SMILES: O=P(O)(O)CC1OC(COP(=O)(O)O)C(O)C1O (stereo not shown) [Compound 2.1, 5-phosphoribosyl-1-methylenephosphonate]
Ka [4]: 6.5 µM | Percent inhibition of glucose production ([6]; 60 μM): 20 ± 15% | Percent inhibition of glucose production ([6]; 100 μM (last row of the table)): 60 ± 15% | Percent inhibition of glucose production ([6]; 125 μM): 35 ± 10% | Percent inhibition of glucose production ([6]; 250 μM): 40 ± 10% | Percent inhibition of glucose production ([6]; 500 μM): 35 ± 10% | Glucose production in FAO hepatoma cells, in words ([6]; incubated with FAO hepatoma cells): inhibits glucose production | Blood Glucose at 120 minutes ([2]; 10 mg/kg IP): 500 mg/dL | Blood Glucose at 120 minutes ([2]; 100 mg/kg IP): 500 mg/dL | Ki [7]: 85 µM | Glucose production in cultured hepatoma cells (FAO), in words [8]: inhibit glucose production

SMILES: CCOP(=O)(CC1OC(CO)C(O)C1O)OCC (stereo not shown) [Compound 3.1, ribose-1-methylenediethylphosphonate]
Insulin release greater compared to controls [10]: about 50% | Activating effect on insulin release, in words [10]: disappeared

SMILES: O=P(O)(O)C(F)(F)C1OC(CO)C(O)C1O (stereo not shown) [Compound 4.1, ribose-1-difluoromethylenephosphonate]
Insulin release greater compared to controls [10]: about 50% | Activating effect on insulin release, in words [10]: disappeared | IC50 [11]: 170 µM | Cholesterol [12]: 39 μg/mg protein | Triglyceride [12]: 44 μg/mg protein | Decrease in cholesterol levels compared to control ([12]; overnight): ~20% | Decrease in triglyceride levels compared to control ([12]; overnight): 26% | cPNP activity ([13]; Pi 20 μM, control 170): 18* arbitrary units | cPNP activity ([13]; Pi 50 μM, control 237): 31 arbitrary units | cPNP activity ([13]; Pi 200 μM, control 298): 96 arbitrary units | cPNP activity ([13]; Pi 1500 μM, control 327): 176 arbitrary units | Mode of inhibition of cPNP, in words ([13]; 27 μM, increasing inorganic phosphate): likely a competitive inhibitor of cPNP

SMILES: CN(C)C(=N)N=C(N)N [Metformin, reference compound]
Cholesterol [12]: 38 μg/mg protein | Triglyceride [12]: 42 μg/mg protein | Blood Glucose at 120 minutes ([2]; 320 mg/kg IP): 400 mg/dL

SMILES: O=P(O)(O)OC[C@H]1O[C@@](CO)(OP(=O)(O)O)[C@@H](O)[C@@H]1O [fructose-2,6-bisphosphate, reference compound]
Ka [5]: 0.09 µM

SMILES: O=P(O)(O)OC[C@H]1OC(OP(=O)(O)O)[C@H](O)[C@@H]1O (stereo partly shown) [ribose-1,5-bisphosphate, reference compound]
Ka [5]: 3.5 µM | Ki ([9]; At 5 μM Fru-1,6-bisphosphate): 87 µM | Maximum Decrease in Activity ([9]; At 5 μM Fru-1,6-bisphosphate): 50% | Ki ([9]; At 20 μM Fru-1,6-bisphosphate): 87 µM | Maximum Decrease in Activity ([9]; At 20 μM Fru-1,6-bisphosphate): 50%
